Where “and” joins values, the source holds several entries; their conditions need not be identical. Equal entries are not always repeated. Toxic doses and inconclusive results are not listed.
System: P388 leukemia ip, CD2F1 mice, survival T/C
Assay: NCI In Vivo Anticancer Drug Screen. Data for tumor model P388 Leukemia (intraperitoneal) in CD2F1 (CDF1) mice
Settings: endpoint: median survival time, higher = longer survival
In short: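 Mice carrying the transplanted tumor received test compound or vehicle. Survival was recorded in each group, and the value is the treated-group measurement divided by that of the vehicle-treated control group.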

[1] = dose: 12.5 mg/kg/injection, schedule: Q01DX009 (ip), vehicle: saline with Tween-80
[2] = dose: 50.0 mg/kg/injection, schedule: Q01DX005 (ip), vehicle: saline with Tween-80
[3] = dose: 100.0 mg/kg/injection, schedule: Q01DX005 (ip), vehicle: saline with Tween-80
[4] = dose: 200.0 mg/kg/injection, schedule: Q01DX005 (ip), vehicle: saline with Tween-80
[5] = dose: 50.0 mg/kg/injection, schedule: Q01DX005 (ip), vehicle: Klucel (hydroxypropylcellulose) (HPC)
[6] = dose: 100.0 mg/kg/injection, schedule: Q01DX005 (ip), vehicle: Klucel (hydroxypropylcellulose) (HPC)
[7] = dose: 200.0 mg/kg/injection, schedule: Q01DX005 (ip), vehicle: Klucel (hydroxypropylcellulose) (HPC)

With `CN(C)CCCN=c1c2ccccc2n(O)c2cccc([N+](=O)[O-])c12` the T/C (dose: 1.56 mg/kg/injection, schedule: Q01DX009 (ip), vehicle: saline with Tween-80) was 123 % of control, the T/C (dose: 3.12 mg/kg/injection, schedule: Q01DX009 (ip), vehicle: saline) was 117 % of control and the T/C [1] was 104 % of control.
In the case of `OC(c1cc(-c2ccccc2)nc2c(Cl)cc(Cl)cc12)C1CCCCN1` (stereo not given), the T/C [1] is reported as 107 % of control, the T/C (dose: 25.0 mg/kg/injection, schedule: Q01DX009 (ip), vehicle: saline with Tween-80) is reported as 98 % of control and the T/C (dose: 50.0 mg/kg/injection, schedule: Q01DX009 (ip), vehicle: saline with Tween-80) is reported as 88 % of control and 95 % of control.
For `COc1ccc(SS(=O)c2ccc(OC)cc2)cc1` (stereo not given), the T/C (dose: 100.0 mg/kg/injection, schedule: Q04DX002 (ip), vehicle: saline with Tween-80) was 100 % of control, the T/C (dose: 200.0 mg/kg/injection, schedule: Q04DX002 (ip), vehicle: saline with Tween-80) was 102 % of control and the T/C (dose: 400.0 mg/kg/injection, schedule: Q04DX002 (ip), vehicle: saline with Tween-80) was 102 % of control.
For `O=C(NN(C(=O)c1ccccc1)c1ccccc1)c1ccccc1`, the T/C [2] was 95 % of control and the T/C [3] was 92 % of control.
With `c1ccc2c(c1)oc1cc3c(cc12)n1nnnc1c1cccn31` the T/C (dose: 25.0 mg/kg/injection, schedule: Q01DX005 (ip), vehicle: saline with Tween-80) was 92 % of control, the T/C [2] was 97 % of control and the T/C [3] was 100 % of control. For the same molecule, the T/C [4] was 100 % of control.
With `CSc1nc(=O)n(CCC#N)nc1SC` the T/C (dose: 60.0 mg/kg/injection, schedule: Q01DX005 (ip), vehicle: Klucel (hydroxypropylcellulose) (HPC)) was 98 % of control, the T/C (dose: 120.0 mg/kg/injection, schedule: Q01DX005 (ip), vehicle: Klucel (hydroxypropylcellulose) (HPC)) was 92 % of control and the T/C (dose: 240.0 mg/kg/injection, schedule: Q01DX005 (ip), vehicle: Klucel (hydroxypropylcellulose) (HPC)) was 92 % of control.
`CCOP(=S)(N/N=C(\C)c1ccncc1)OCC` was tested, and the T/C [5] was 112 % of control, the T/C [6] was 107 % of control and the T/C [7] was 115 % of control.
With `Cc1cc(Nc2ccc3c(c2)OCO3)c2cc3c(cc2n1)OCO3` the T/C [5] was 105 % of control and 107 % of control, the T/C [6] was 116 % of control and the T/C [7] was 165 % of control and 178 % of control.
`COc1ccc(C2COc3cc4c(cc3C2)OCO4)cc1` (stereo not given) was tested, and the T/C (dose: 60.0 mg/kg/injection, schedule: Q01DX005 (ip), vehicle: saline with Tween-80) was 98 % of control, the T/C (dose: 120.0 mg/kg/injection, schedule: Q01DX005 (ip), vehicle: saline with Tween-80) was 98 % of control and the T/C (dose: 240.0 mg/kg/injection, schedule: Q01DX005 (ip), vehicle: saline with Tween-80) was 96 % of control.
With `Cc1ccc(SCC#CC#CCS(=O)c2ccc(C)cc2)cc1` (stereo not given) the T/C [2] was 110 % of control and the T/C [3] was 107 % of control.
With `N#CCCN(C(=O)Nc1ccccc1)c1ccccc1` the T/C (dose: 50.0 mg/kg/injection, schedule: Q01DX009 (ip), vehicle: Klucel (hydroxypropylcellulose) (HPC)) was 103 % of control, the T/C (dose: 100.0 mg/kg/injection, schedule: Q01DX009 (ip), vehicle: Klucel (hydroxypropylcellulose) (HPC)) was 107 % of control and the T/C (dose: 200.0 mg/kg/injection, schedule: Q01DX009 (ip), vehicle: Klucel (hydroxypropylcellulose) (HPC)) was 107 % of control.
With `CC(=O)OC1C(=O)C2(C)C(O)CC3OCC3(OC(C)=O)C2C(OC(=O)c2ccccc2)C2(O)CC(OC(=O)C(O)C(NC(=O)c3ccccc3)c3ccccc3)C(C)=C1C2(C)C` (stereo not given) the T/C (dose: 2.5 mg/kg/injection, schedule: Q01DX005 (ip), vehicle: DMSO) was 106 % of control, the T/C (dose: 5.0 mg/kg/injection, schedule: Q01DX005 (ip), vehicle: DMSO) was 121 % of control and the T/C (dose: 20.0 mg/kg/injection, schedule: Q01DX005 (ip), vehicle: DMSO) was 167 % of control.
For `O=S1(=O)CCC2CCCCC2C1` (stereo not given), the T/C (dose: 6.25 mg/kg/injection, schedule: Q01DX009 (ip), vehicle: saline with Tween-80) was 109 % of control and the T/C [1] was 100 % of control.
In the case of `CC(C)C(=O)OCC(C)(C)C(OC(=O)COc1ccc(Cl)cc1Cl)C(C)C` (stereo not given), the T/C [2] is reported as 101 % of control, the T/C [3] is reported as 106 % of control and the T/C [4] is reported as 97 % of control.
`O=C(O)CSc1ccc(NC(=O)NC2CCCCC2)cc1` was tested, and the T/C (dose: 100.0 mg/kg/injection, schedule: Q04DX003 (ip), vehicle: saline with Tween-80) was 100 % of control, the T/C (dose: 200.0 mg/kg/injection, schedule: Q04DX003 (ip), vehicle: saline with Tween-80) was 100 % of control and the T/C (dose: 400.0 mg/kg/injection, schedule: Q04DX003 (ip), vehicle: saline with Tween-80) was 100 % of control.
For `CCOC(=O)/N=[N+](\[O-])c1cccc([N+](=O)[O-])c1`, the T/C (dose: 100.0 mg/kg/injection, schedule: Q01DX001 (ip), vehicle: saline with Tween-80) was 103 % of control and the T/C (dose: 200.0 mg/kg/injection, schedule: Q01DX001 (ip), vehicle: saline with Tween-80) was 93 % of control.

— PubChem BioAssay AID330 (DTP/NCI, 2004)
